Legend:
[1] = set-up: method as in PMID 28441771, PMID 29231907, PMID 28587113; settings: preclinical and clinical studies; cited from earlier work
[2] = literature-reported biology of the tentatively identified metabolite; no reference given; cited from earlier work
[3] = test system: Cal27 and JHU029 cells; assay: HNC cell cytotoxicity assay of other bitter melon compounds (Figure S1); assay type: cell-based, human; settings: 48 hr
Procedure: Cal27, JHU029, JHU022 and NOK were seeded in 96 well-plate (5000 cells/well) and cells were treated with different concentration of M-I for 48 h. There were untreated control and DMSO treated vehicle control group for comparison. Cytotoxicity assay was performed using Cell Counting Kit-8 (Dojindo Molecular Technology, Rockville, MD, USA) according to manufacturer instruction.
Supplementary Materials: Momordicine-I, a Bitter
Activity in Head and Neck Cancer Involving c-Met
Figure S1. Cal27 and JHU029 ells were treated with momordicine-I (M-I), momordicosideK (MK), karavilageninD (KD) at indicated doses for 48 hr and cytotoxicity assay was performed. Small bar indicates standard error.
Figure S2. Whole blot for Figure 2A. […]

Compound: CN1CCN(C2CCN(C(=O)Nc3cc(Oc4ccc(NC(=O)C5(C(=O)Nc6ccc(F)cc6)CC5)c(F)c4)ccn3)CC2)CC1 [Golvatinib]
- adverse side effects [1]: supraventricular tachycardia, convulsion, and pulmonary embolism

Compound: C[C@H](C/C=C/C(C)(C)O)[C@H]1CC[C@@]2(C)[C@@H]3[C@@H](O[C@@H]4O[C@H](CO)[C@@H](O)[C@H](O)[C@H]4O)C=C4[C@@H](CC[C@H](O)C4(C)C)[C@]3(C=O)CC[C@]12C [Momordicoside L]
- Reported Biology [2]: Weak α-glucosidase inhibition

Compound: COC(C)(C)/C=C/C[C@@H](C)[C@H]1CC[C@@]2(C)[C@@H]3[C@@H](O[C@@H]4O[C@H](CO)[C@@H](O)[C@H](O)[C@H]4O)C=C4[C@@H](CC[C@H](O)C4(C)C)[C@]3(C=O)CC[C@]12C [MK, momordicoside K]
- amount required for ~40% cell death [3]: > 50 µg/mL

Compound: Sacranoside A
- Reported Biology [2]: nitric oxide inhibitory effect

Compound: C[C@H](C[C@@H](O)[C@H](O)C(C)(C)O)[C@H]1CC[C@@]2(C)[C@@H]3C=C[C@@]45OC[C@]3(CC[C@]12C)[C@@H]4CC[C@H](O[C@@H]1O[C@H](CO)[C@@H](O)[C@@H](O)[C@H]1O)C5(C)C [Karaviloside XI]
- Reported Biology [2]: Antidiabetic

Compound: CO[C@H]1C=C2[C@@H](CC[C@H](O[C@@H]3O[C@H](CO)[C@@H](O)[C@@H](O)[C@H]3O)C2(C)C)[C@]2(C)CC[C@]3(C)[C@@H]([C@H](C)C/C=C/C(C)(C)O)CC[C@@]3(C)[C@H]12 [Karaviloside III]
- Reported Biology [2]: cytotoxic activity against Hep3B and HepG2 cell lines

Compound: COc1cc2c(Oc3ccc(NC(=O)C4(C(=O)Nc5ccc(F)cc5)CC4)cc3F)ccnc2cc1OCCCN1CCOCC1 [Foretinib]
- adverse side effects [1]: fatigue, hypertension, and gastrointestinal toxicities

Compound: C[C@H](C/C=C/C(C)(C)O)[C@H]1CC[C@@]2(C)[C@@H]3C=C[C@@]45OC(=O)[C@]3(CC[C@]12C)[C@@H]4CC[C@H](O)C5(C)C [KD, karavilagenin D]
- amount required for ~40% cell death [3]: > 50 µg/mL

— article PMC8003975 (Cancers, 2021)
